Reference: US4859664A, “Derivatives of 2,3,4,5,6,7-hexahydro-2,7-methano-1,5-benzoxazonines and -1,4-benzoxazonines, processes for their production and their use as pharmaceuticals” (priority 1986, dated 1989)
Like-named read-outs stand apart in the source and are kept apart here.

Key:
[1] = assay type: in vivo, male NMRI mice; settings: ED50 p.o. / ED50 s.c.
Experimental: (§1) […]. They were given a standard feed and water ad libitum up to the commencement of the experiments.
(§2) The test compounds were administered in a volume of 10 ml./kg./body weight per mouse. As carrier, there was used physiological sodium chloride solution or a suspension of 0.5% tragacanth in physiological sodium chloride solution.
(§3) The experimental results are given as average values with a mean error of the average value (x±S.E.M.). The ED50 values were calculated according to Litchfield and Wilcoxon (J. Pharmacol. Exp. Ther., 96, 99/1949). The compounds were thereby tested in 4 dosages (p≤0.5).
(§4) For the significance calculation, there was used Student's t test (see Angewandte Statistik, pub. Stringer Verlag, Berlin, Heidelberg, 242/1983), as well as the range sum test of Mann and Withney (Ann. Math. stat., 50, 1818/1947).
(§5) 1.1. In the acetic acid writhing test (see R. Koster et al., Fed. proc., 18, 412/1954), the typical stretching movements referred to as "writhing", were produced by the intraperitoneal administration of a 0.6% acetic acid solution. 30 minutes previously, the substance to be tested was administered subcutaneously (s.c.) or orally ([…].) to the animals. 3 minutes after administration of the acetic acid solution, the total number of stretching movements in a period of time of 10 minutes was ascertained. From the decrease of the stretching reactions due to the action of the test compound in comparison with non-pretreated control groups, there was determined the percentage inhibition action.

[2] = tonus reduction on striated musculature; assay type: in vivo, male NMRI mice
Experimental: For the pharmacological investigations described in the following, there were used male NMRI mice with a weight of from 15 to 30 g. The animals were kept under usual laboratory conditions, randomised and subjected to a light-dark change with a 12 hour rhythm. They were given a standard feed and water ad libitum up to the commencement of the experiments.
as §2
6. Tonus reduction on striated musculature.
The test used is described by J. P. Chambon et al. (Arzneimittelforschung (Drug Research), 35 (II), (10), 1572/1985).
5 animals per dosage group were placed with their front paws on a horizontal metal rod (diameter 3 mm., length 20 cm.) which was fixed 30 cm. above a laboratory bench. Mice with normal muscle tonus climbed within 5 seconds on to the rod with at least one rear paw.
40, 80 and 120 minutes after the subcutaneous administration of the test compound, the animals were again tested for this ability and the number of incapable animals was recorded.

[3] = influencing of hexobarbital narcosis; assay type: in vivo, male NMRI mice; settings: for period of narcosis ± SEM: hexobarbital sodium 100 mg./kg. i.p.
Experimental: as §1, §2, §3
4. Influencing of hexobarbital narcosis.
The test compounds were administered subcutaneously to 5 animals per dosage group. After 30 minutes, 100 mg./kg. hexobarbital sodium was administered intraperitoneally. 2 to 3 minutes after this injection, the animals allowed themselves to be laid on their backs. For each animal, there was measured the time in minutes from the commencement of the back position up to the time when the animals themselves twice successively again assumed the abdominal position.

[4] = assay type: in vivo, male NMRI mice; settings: for % inhibition action ± SEM with naloxone: with naloxone hydrochloride 20 mg./kg. s.c.; for change in % (with vs without naloxone): given without sign
Experimental: They were given a standard feed and water ad libitum up to the commencement of the experiments.
as §2, §3, §4, §5
Naloxone-antagonistic action in the writhing test.
20 Minutes before the subcutaneous administration of the test compounds, the animals were given 20 mg./kg. naloxone hydrochloride subcutaneously. The further carrying out of the experiments was as described above.

Structure (SMILES)	quotient p.o./s.c. (of ED50) [1]	muscle-relaxing action ([2]; 25 mg./kg. s.c.)	muscle-relaxing action ([2]; 50 mg./kg. s.c.)	change with regard to hexabarbital sodium ([3]; 25 mg/kg sc)	period of narcosis ± SEM ([3]; 25 mg/kg sc)	effect on period of narcosis ([3]; 50 mg./kg.)	change with regard to hexabarbital sodium ([3]; 50 mg/kg sc)	period of narcosis ± SEM ([3]; 50 mg/kg sc)	% inhibition action ± SEM with naloxone ([4]; 12.5 mg/kg s.c.)	% inhibition action ± SEM without naloxone ([4]; 12.5 mg/kg s.c.)	change in % (with vs without naloxone) ([4]; 12.5 mg/kg s.c.)	% inhibition action ± SEM with naloxone ([4]; 25 mg/kg s.c.)	% inhibition action ± SEM without naloxone ([4]; 25 mg/kg s.c.)	change in % (with vs without naloxone) ([4]; 25 mg/kg s.c.)	% inhibition action ± SEM with naloxone ([4]; 50 mg/kg s.c.)	% inhibition action ± SEM without naloxone ([4]; 50 mg/kg s.c.)	change in % (with vs without naloxone) ([4]; 50 mg/kg s.c.)
CC1NCCC2(C)CC1c1ccccc1O2 (centres unmarked) [Example 9, 2,3,4,5,6,7-hexahydro-2,6-dimethyl-2,7-methano-1,5-benzoxazonine]	1.45	13%	20%	-29.4 min	63 ± 21.0 min	statistically verified shortening of the period of narcosis	-53.4 min	39 ± 12.4 min	52.0 ± 1.5%	57.0 ± 7.6%	5.0%	80.1 ± 6.8%	64.0 ± 5.0%	16.1%	88.4 ± 11.6%	84.9 ± 2.7%	3.5%
CC12CCNCC(C1)c1ccccc1O2 (centres unmarked) [Example 6, 2,3,4,5,6,7-hexahydro-2-methyl-2,7-methano-1,5-benzoxazonine]	1.65	13%	20%	–	–	–	–	–	39.7 ± 10.4%	33.2 ± 3.2%	6.5%	65.5 ± 6.5%	58.9 ± 10.1%	6.6%	91.8 ± 3.3%	84.6 ± 7.7%	7.2%
